Experimental data from US10435361B2, “Kinase inhibitors” (Topivert Pharma Limited, priority 2013, dated 2019).
Where two headings read alike, the source gives them in different places.

How the values were obtained:
[1] = tested on: BDF1 mice; test: TNBS-induced colitis in mice; type: in vivo; conditions: conducted over 2 days; vehicle corn oil/transcutol/maisine/cremophor ELP
Protocol: Non-fasted, 10-12 week old, male BDF1 mice are dosed by oral gavage twice daily with either vehicle (5 mL/kg), reference item (Budesonide 2.5 mg/kg) or test compound (1 or 5 mg/kg) one day before (Day −1) stimulation of the inflammatory response by treatment with 2,4,6-trinitrobenzenesulphonic acid (TNBS) (15 mg/mL in 50% ethanol/50% saline). On Day 0 of the study TNBS (200 μL) is administered intra-colonically via a plastic catheter with BID dosing of the vehicle, reference or test compound continuing for 2 or 4 days. During the study, animals are weighed every day and stool observations are made and recorded as a score, based on stool consistency. At the time of sacrifice on Day 2 (or Day 4), the large intestine is removed and the length and weight recorded. Sections of the colon are taken for histopathology scoring to determine disease severity.

[2] = tested on: PBMCs; test: Cell mitosis assay in PBMCs; type: cell-based; conditions: Homo sapiens, PBMC, 5 μg/mL
Procedure, shortened: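 Human PBMCs from healthy donors, density-gradient isolated, stimulated with 2% PHA 48 h, then exposed 20 h to test compounds; demecolcine 0.1 μg/mL added 2 h before harvest. Fixed/permeabilised cells stained for phospho-histone H3 and propidium iodide; mitotic lymphocytes counted by flow cytometry.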

[3] = Plasma pharmacokinetics and total colon tissue distribution in mice, single oral administration; type: in vivo, C57BL/6 mice; conditions: male, C57BL/6, mouse, 5 mg/kg, read-out: Median plasma concentration
Protocol: (§1) Studies were conducted by Sai Life Sciences (Hinjewadi, Pune, India) to investigate the plasma pharmacokinetics and total colon tissue distribution of compounds of the invention. In particular, pharmacokinetic studies were carried out in: • male C57BL/6 mice, following a single oral administration; and • male Wistar rats following a single intravenous or oral administration.

[4] = Plasma pharmacokinetics in rats, single intravenous or oral administration; type: in vivo; conditions: male, Wistar, rat; for clearance: rats, intravenous 0.25 mg/kg
Protocol: as §1

[5] = tested on: HT29 cells; test: IL-1β-induced IL-8 release in HT29 cells; type: cell-based; conditions: Homo sapiens, HT-29, assay (d), read-out: IC50 Values for Inhibition of Cytokine Release HT29 cells IL-8
Protocol: HT29 cells, a human colon adenocarcinoma cell line, are plated in a 96 well plate (24 hr) and pre-treated with compounds at the desired concentration for 2 hours before addition of 5 ng/mL of IL-1β (Abcam) for 24 hours. Supernatants are harvested for IL-8 quantification by Sandwich ELISA (Duo-set, R&D System). The IC50 is determined from the dose response curve.

[6] = tested on: PBMCs; test: LPS-induced TNFα/IL-8 release in PBMC cells; type: cell-based; conditions: Homo sapiens, assay (b), read-out: IC50 Values for Inhibition of Cytokine Release PBMCs IL-8
Procedure, shortened: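 Healthy-donor PBMCs isolated by density gradient were pretreated with compound for 2 h, then stimulated with 1 ng/mL LPS (E. coli 0111:B4) for 24 h at 37° C., 5% CO2. IL-8 and TNFα in supernatants measured by sandwich ELISA.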

[7] = tested on: PBMCs; test: IL-2 and IFN gamma release in CD3/CD28 stimulated PBMC cells; type: cell-based; conditions: Homo sapiens, assay (c)
Procedure, shortened: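 Healthy-donor PBMCs, density-gradient isolated, stimulated on plates pre-coated with anti-CD3 (0.3 μg/mL) and anti-CD28 (3 μg/mL) antibodies, with compound, for 3 days under standard culture conditions. IC50 derived from the dose-response curve.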

[8] = tested on: SCID animals; test: Adoptive transfer in mice (CD45RBhigh cells into SCID animals); type: in vivo; conditions: end of the study
Protocol: On Study day 0, female Balb/C mice are terminated and spleens obtained for CD45RB^high cell isolation (Using SCID IBD cell Separation protocol). Approximately 4×10^5 cells/mL CD45RB^high cells are then injected intraperitoneally (100 μL/mouse) into female SCID animals. On study day 14, mice are weighed and randomized into treatment groups based on body weight. On Day 14, compounds are administered BID, via oral gavage, in a peanut oil vehicle at the dose levels outlined below in Tables 6a and 6b and a dose volume of 5 mL/kg. Treatment continues until study day 42, at which point the animals are necropsied 4 hours after the morning administration. The colon length and weight are recorded and used as a secondary endpoint in the study as a measurement of colon oedema. The colon is then divided into six cross-sections, four of which are used for histopathology scoring (primary endpoint) and two are homogenised for cytokine analysis. Data shown is the % inhibition of the induction window between naïve animals and vehicle animals, where higher inhibition implies closer to the non-diseased, naïve, phenotype.

[9] = tested on: d-U937 cells; test: LPS-induced TNFα/IL-8 release in d-U937 cells; type: cell-based; conditions: Homo sapiens, dU937, assay (aa)
Protocol: U937 cells, a human monocytic cell line, are differentiated to macrophage-type cells by incubation with phorbol myristate acetate (PMA; 100 ng/mL) for 48 to 72 hr. Cells are pre-incubated with final concentrations of test compound for 2 hr and are then stimulated with 0.1 μg/mL of LPS (from E. Coli: 0111:B4, Sigma) for 4 hr. The supernatant is collected for determination of TNFα and IL-8 concentrations by sandwich ELISA (Duo-set, R&D systems). […] The relative 50% effective concentration (REC50) is determined from the resultant concentration-response curve. The inhibition of IL-8 production is calculated at each concentration of test compound by comparison with vehicle control.

[10] = tested on: Lewis rats; test: Endotoxin-induced uveitis in rats; type: in vivo; conditions: rats treated with intravitreal endotoxin LPS
Protocol: Male, Lewis rats (6-8 weeks old, Charles River UK Limited) are housed in cages of 3 at 19-21° C. with a 12 h light/dark cycle (07:00/19:00) and fed a standard diet of rodent chow and water ad libitum. Non-fasted rats are weighed, individually identified on the tail with a permanent marker, and receive a single intravitreal administration into the right vitreous humor (5 μL dose volume) of 100 ng/animal of LPS (Escherichia coli 0111:B4 prepared in PBS, Sigma Aldrich, UK) using a 32-gauge needle. Untreated rats are injected with PBS. Test compound, dexamethasone (Dex) or vehicle (20% hydroxypropyl-β-cyclodextrin, 0.1% HPMC, 0.01% Benzalkonium chloride, 0.05% EDTA, 0.7% NaCl in deionised water) are administered by the topical route onto the right eye (10 μL) of animals 30 minutes prior to LPS, at the time of LPS administration, and 1, 2 and 4 hours post LPS administration. Before administration, the solution or suspension to be administered is agitated for 5 minutes to ensure a uniform suspension. 6 hours after LPS dosing, animals are euthanized by overdose with pentobarbitone (i.v.). Following euthanasia, the right eye of each animal is enucleated and dissected into front (anterior) and back (posterior) sections around the lens. Each section is weighed and homogenised in 500 μL of sterile phosphate buffered saline followed by 20 minutes centrifugation at 12000 rpm at 4° C. The resulting supernatant is divided into 3 aliquots and stored at −80° C. until subsequent cytokine analysis by R&D DuoSet ELISA.

[11] = tested on: Salmonella typhimurium TA98; test: Bacterial reverse mutation screen, strain TA98; type: cell-based; conditions: presence or absence of S-9 mix; up to 1000 μg/plate analysable
Protocol: (§2) Studies were conducted by Sequani (Ledbury, Herefordshire, UK) to assess compounds of the invention for their ability to induce mutations in two histidine dependent auxotrophic mutants of Salmonella typhimurium, strains TA98 and TA100 in vitro.
(§3) The mutation screen was conducted using the plate incorporation method and was performed in both the presence and absence of S-9 mix (a liver post-mitochondrial fraction derived from the livers of Aroclor 1254 treated rats). The bacteria were exposed to test compounds dissolved in dimethylsulphoxide, which solvent was also used as the negative control. The dose levels used were 0.32, 1.6, 8, 40, 200, 1000 or 5000 μg/plate.
(§4) Precipitation was also noted in both strains at 1000 μg/plate in the presence and absence of S-9 mix.

[12] = Hydrolytic stability study (DMSO/water 3:1, 60° C.); type: physicochemical
Protocol: Chemical stability of compounds of the invention was assessed in a mixture of DMSO and water (3:1) at a test compound concentration of 1 mg/mL
Agilent, Waters X-Select C18, 2.5 μm, 4.6×30 mm column, 4 min method, 5-95%
MeCN/water (0.1% formic acid).
Column Oven Temperature 40° C.
Sample Preparation • A 1.0 mg sample of test compound was dissolved in 750 μL of DMSO. Water (250 μL) was added slowly, ensuring no precipitation occurred.
Recording Stability • A 50 μL aliquot of the test solution was removed and analysed in duplicate by 5 μL HPLC injections. The peak area for the test compound was recorded following manual integration of the corresponding UV trace. • The test solution was heated to 60° C., with stirring, and 50 μL aliquots removed for HPLC analysis at 5 and 24 h timepoints.

[13] = tested on: Salmonella typhimurium TA100; test: Bacterial reverse mutation screen, strain TA100; type: cell-based; conditions: presence or absence of S-9 mix; up to 1000 μg/plate analysable
Protocol: as §2, §3, §4

[14] = molecular target: CYP2C9 (Homo sapiens (Human), UniProt P11712); test: CYP2C9 inhibition studies; type: in vitro ADME; conditions: inhibition at 5 μM reported instead of 15 μM (precipitation)
Protocol: Assessment of certain in vitro ADME (absorption, distribution, metabolism, and excretion) parameters for certain compounds of the invention was conducted by BioFocus (Saffron Walden, UK).

[15] = po, 5 mg/kg, read-out: Median plasma concentration
[16] = read-out: IC50 Values for Inhibition of Cytokine Release PBMCs IFNγ
[17] = read-out: IC50 Values for Inhibition of Cytokine Release PBMCs IL-2

CYP2C9, sequence (P11712 whole entry): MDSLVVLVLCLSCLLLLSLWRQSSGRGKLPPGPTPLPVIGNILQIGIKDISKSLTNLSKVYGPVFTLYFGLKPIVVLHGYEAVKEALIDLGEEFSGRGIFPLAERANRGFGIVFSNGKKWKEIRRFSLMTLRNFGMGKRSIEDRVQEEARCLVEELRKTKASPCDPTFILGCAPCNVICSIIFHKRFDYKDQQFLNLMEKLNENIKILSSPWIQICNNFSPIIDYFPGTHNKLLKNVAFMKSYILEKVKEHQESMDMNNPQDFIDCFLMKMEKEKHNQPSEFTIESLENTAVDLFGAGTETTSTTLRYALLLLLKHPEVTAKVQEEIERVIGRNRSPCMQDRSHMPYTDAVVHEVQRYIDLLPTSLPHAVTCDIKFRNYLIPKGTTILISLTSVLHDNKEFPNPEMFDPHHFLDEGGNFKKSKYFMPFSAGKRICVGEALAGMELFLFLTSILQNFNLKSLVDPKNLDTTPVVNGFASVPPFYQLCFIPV

| SMILES | activity in TNBS-induced colitis (histopathology analysis) [1] | inhibition at 5 µg/mL [2] [%] | clearance [4] [mL/min/kg] | IC50 [5] [nM] | IC50 [6] [nM] | IC50 [7, 16] [nM] | IC50 [7, 17] [nM] | cytokine levels in the anterior and posterior segments of the eyes [10] | further results |
| --- | --- | --- | --- | --- | --- | --- | --- | --- | --- |
| COCCOCCOCCNC(=O)c1cc(Nc2cc(Oc3ccc(NC(=O)Nc4cc(C(C)(C)C)cc(NS(C)(=O)=O)c4OC)c4ccccc34)ccn2)cc(OC)c1 [Example 3, 3-((4-((4-(3-(5-(tert-Butyl)-2-methoxy-3-(methylsulfonamido)phenyl)ureido)naphthalen-1-yl)oxy)pyridin-2-yl)amino)-5-methoxy-N-(2-(2-(2-methoxyethoxy)ethoxy)ethyl)benzamide] | displayed substantial activity | 31.7 | 5.1 | 8.1 | 1.2 | 9.6 | 190 | – | concentration at 1 h [3]: 0 ng/mL; concentration at 2 h [3]: 0 ng/mL; concentration at 4 h [3]: 0 ng/mL; concentration at 8 h [3]: 0 ng/mL; concentration at 12 h [3]: 0 ng/mL; concentration at 24 h [3]: 0 ng/mL; concentration at 0.5 h [4, 15]: 0 ng/mL; concentration at 1 h [4, 15]: 0 ng/mL; concentration at 2 h [4, 15]: 0 ng/mL; concentration at 4 h [4, 15]: 0 ng/mL; concentration at 6 h [4, 15]: 0 ng/mL; concentration at 8 h [4, 15]: 0 ng/mL; concentration at 12 h [4, 15]: 0 ng/mL; concentration at 24 h [4, 15]: 0 ng/mL; activity in adoptive transfer model (ratios of colon weight to length) [8]: displayed significant activity; IC50 ([9]; method: relative to 10 μg/mL BIRB796 (REC50), read-out: IC50 Values for Inhibition of Cytokine Release dU937 cells TNFα): 0.4 nM; IC50 ([9]; read-out: IC50 Values for Inhibition of Cytokine Release dU937 cells IL-8): 1.3 nM |
| COc1cc(Nc2cc(Oc3ccc(NC(=O)Nc4cc(C(C)(C)C)cc(NS(C)(=O)=O)c4OC)c4ccccc34)ccn2)cc(C(=O)NCCCN2CCOCC2)c1 [Example 66, 3-((4-((4-(3-(5-(tert-Butyl)-2-methoxy-3-(methylsulfonamido)phenyl)ureido)naphthalen-1-yl)oxy)pyridin-2-yl)amino)-5-methoxy-N-(3-morpholinopropyl)benzamide] | – | 66.6 | – | 16.4 | 1.9 | 20.2 | 49.2 | significantly reduced | – |
| CNC(=O)c1cc(C(C)(C)C)cc(NC(=O)Nc2ccc(Oc3ccnc(Nc4cc(OC)cc(OCCOCCOCCOC)c4)c3)c3ccccc23)c1OC [Example 29, 5-(tert-Butyl)-2-methoxy-3-(3-(4-((2-((3-methoxy-5-(2-(2-(2-methoxyethoxy)ethoxy)-ethoxy)phenyl)amino)pyridin-4-yl)oxy)naphthalen-1-yl)ureido)-N-methylbenzamide] | – | 34.6 | 14.2 | 0.6 | 2.3 | 3.5 | 51.2 | significantly reduced | – |
| COc1c(NC(=O)Nc2ccc(Oc3ccnc(Nc4ccccc4)c3)c3ccccc23)cc(C(C)(C)C)cc1C(=O)NC1COC1 [Example 75, 5-(tert-Butyl)-2-methoxy-N-(oxetan-3-yl)-3-(3-(4-((2-(phenylamino)pyridin-4-yl)ox)-naphthalen-1-yl)ureido)benzamide] | displayed substantial activity | 42.6 | 4.4 | – | 5 | 14.9 | 56.8 | significantly reduced | increases in revertant colonies, strain TA98 [11]: no dose-related or statistically significant increases in revertant colonies; % Parent Remaining ([12]; DMSO/water 3:1, 0 min): 100%; % Parent Remaining ([12]; DMSO/water 3:1, 60° C., 1440 min): 99%; increases in revertant colonies, strain TA100 [13]: no dose-related or statistically significant increases in revertant colonies |
| C#CC(C)(C)c1cc(NC(=O)Nc2ccc(Oc3ccnc(Nc4cc(C)c5[nH]ncc5c4)n3)c3ccccc23)n(-c2ccc(C)cc2)n1 [Ref Cpd A] | – | – | – | – | – | – | – | – | % Inh at 5 μM ([14]; CYP2C9, 0 min preincubation): 31^[†] %; % Inh at 5 μM ([14]; CYP2C9, 30 min preincubation): 66^[†] % |
